Here are results for 2 molecules from PMC12202533, “Mechanistic Insights and Anti-cancer Activity of 2H-benzo[b][1,4]oxazin-3(4H)-one Linked 1,2,3-Triazoles in Human Cancer Cells” (Frontiers in Pharmacology, 2025).

One data set deals with SKOV3. The experiment in a line: CCK-8 cell viability assay. It counts as cell-based. The conditions noted are these: Homo sapiens, SK-OV-3, SKOV3, 40 μM, 48 h, read-out: Cell viability (100%), 40 μM, 48 h, SKOV3. The method, then:
(§1) In order to investigate the anticancer activity of new synthetic 1,4-benzoxazinone-linked 1,2,3-triazole compounds, we chose several cancer cell lines, including A549 (lung), Huh7 (liver), MCF-7 (breast), HCT-116 (colon), and SKOV3 (ovary), and measured cell viability using the CCK-8 assay. Cells were exposed to 40 μM of the compounds for 48 h, and then cell viability was determined. […] In addition, we used the reference drug gefitinib as a positive control and measured its cell viability on different cell lines. […] We used BEAS-2B cells as a normal cell line to determine the toxic effects of these compounds on normal cells. […] Furthermore, we evaluated the IC50 of these compounds in A549.
(§2) Human cancer cell lines A549, Huh7, MCF-7, HCT-116, and SKOV3 were obtained from ATCC. The cells were cultured in DMEM or RPMI 1640 medium supplemented with 10% FBS and 1% penicillin/streptomycin and incubated at 37°C in a CO2-humidified atmosphere.
(§3) Cells were cultured in DMEM or RPMI 1640 medium containing 10% FBS and 1% penicillin/streptomycin at 37°C and 5% CO2. The CCK-8 assay was performed on several human cancer cell lines, including A549, Huh7, MCF-7, HCT-116, and SKOV3, according to the manufacturer’s instructions. Cells were plated at a density of 5 × 10^3 cells per well in a 96-well plate. After 24 h of incubation, cells were treated with 40 μM compounds for 48 h. Cell viability was assessed by adding 10 μL of CCK-8 reagent, dissolved in the cell culture medium, and incubating for 1 h. Absorbance was measured at 450 nm using a microplate reader. IC50 values were determined using a dose-response curve with six concentrations (0, 10, 20, 40, 80, and 160 μM), and IC50 values were calculated using GraphPad Prism software.

A further data set concerns Huh7. Nature of the data set: CCK-8 cell viability assay. The conditions noted are these: Homo sapiens, Huh-7, Huh7, 40 μM, 48 h, read-out: Cell viability (100%), 40 μM, 48 h, Huh7. It counts as cell-based. The method, then:
as §1, §2, §3
In general terms: Formazan colour is commonly taken as a measure of viable cells.

A further data set relates to MCF-7. Nature of the data set: CCK-8 cell viability assay. Format: cell-based. Particulars: Homo sapiens, MCF7, MCF-7, 40 μM, 48 h, read-out: Cell viability (100%), 40 μM, 48 h, MCF-7. The method, then: as §1, §2, §3
In data set [1] the test system is A549 cells. The experiment in a line: Calcein AM/PI live/dead viability assay. It counts as cell-based, human. The conditions noted are these: 24 h. The procedure: (§4) To investigate the role of 14b and 14c in regulating cell proliferation and death, A549 cells were treated with different concentrations of compounds for 24 h, and the live/dead cell numbers were then observed by staining with calcein AM and propidium iodide.
(§5) FIGURE 4 Compound 14b and 14c increased dead cells and decreased live cells. (A–B) A549 cells were treated with different concentrations of 14b and 14c (5 μM, 10 μM, and 20 μM) for 24 h (C–D) BEAS-2B cells were treated with different concentrations of 14b and 14c (5 μM, 10 μM, and 20 μM) for 24 h. Live and dead cell numbers were stained with calcein in AM and PI, respectively, and cells were observed by confocal microscopy. Data are presented as mean ± SEM, *P < 0.05.
(§6) The live/dead viability assay was performed using the Calcein/PI Live/Dead Viability Assay Kit. A549 cells were plated at a density of 5 × 10^3 cells per well in a 96-well plate and allowed to adhere overnight. Compounds were then added at concentrations of 0, 5, 10, or 20 μM for 24 h. After replacing the medium with fresh culture medium containing Calcein AM and propidium iodide, the cells were incubated for 30 min at 37°C in the dark. Live and dead cells were observed and photographed using a confocal microscope.

For a further data set, the system named is BEAS-2B cells. Nature of the data set: Calcein AM/PI live/dead viability assay, normal lung cells. It counts as cell-based. The conditions noted are these: BEAS-2B, 5, 10, 20 μM, 24 h. The method, then: as §4, §5, §6
Data set [2] is described as follows: CCK-8 cell viability assay, normal cell line. It counts as cell-based. The conditions noted are these: human, BEAS-2B cells (normal cell line), BEAS-2B normal cell line, read-out: Cell viability (100%), 40 μM, 48 h, BEAS-2B. The procedure: as §1, §3
For data set [3], the system named is A549 cells. The experiment in a line: Cellular ROS level measurement (DCFH-DA). The conditions noted are these: A549, 5, 10 or 20 μM, 24 h. It counts as cell-based, human. The text has this:
Intracellular reactive oxygen species (ROS) generation will result in mitochondrial membrane damage and further induce cell apoptosis and cell death. To determine whether compounds 14b and 14c could induce ROS generation, we treated A549 cells with different doses of these two compounds and measured the intracellular ROS levels using the DCFH-DA peroxide-sensitive fluorescent dye. When DCFH-DA entered the cells, it would hydrolyze into DCFH by esterase and then convert to non-diffusible green fluorescent DCF by oxidation.
FIGURE 6 Compounds 14b and 14c increased ROS levels. A549 cells were treated with different concentrations of 14b (A) and 14c (B) (5 μM, 10 μM, or 20 μM) for 24 h. ROS levels were stained using DCFH-DA, observed by confocal microscopy, and analyzed by ImageJ. Data are presented as mean ± SEM, *P < 0.05.
A549 cells were seeded at a density of 5 × 10^3 cells per well in a 96-well plate and allowed to adhere overnight. Compounds were then added at concentrations of 0, 5, 10, and 20 μM for 24 h. After treatment, the medium was removed, and fresh medium without FBS but containing 10 μM DCFH-DA was added and incubated in the dark for 30 min. The cells were washed three times with FBS-free medium to remove excess probe. ROS levels were then measured and imaged using confocal microscopy.

Data set [4] concerns A549 cells. Nature of the data set: Western blot analysis of autophagy, DNA damage and cell cycle proteins. It counts as cell-based, human. The conditions noted are these: A549, 5, 10, 20 μM, 48 h. The method, then:
Next, we measured the expression of key proteins involved in autophagy, DNA damage, and cell cycle progression in 14b and 14c compound-exposed cells. After treatment for 48 h, cell proteins were collected and measured by Western blot. […] Proteins in cell cycle progression, including cyclin D, cyclin E, and β-catenin, however, were not affected in the 14 b compound exposure group compared with the control group. […] However, the key regulators involved in autophagy and cell cycle progression, such as LC3, cyclin D, cyclin E, and β-catenin, were not changed.
FIGURE 7 Compounds 14b and 14c affected DNA damage and autophagy. A549 cells were treated with different concentrations of 14b (A) and 14c (B) (5 μM, 10 μM, and 20 μM) for 48 h. Protein expressions were analyzed by Western blot. Top: Western blot of LC3, γ-H2AX, PARP, cyclin D, cyclin E, and β-catenin. Bottom: quantitative measurements relative to ACTIN. Data are presented as mean ± SEM, *P < 0.05.
The following antibodies were used for Western blot analysis: LC3, γ-H2AX, PARP, cyclin D, cyclin E, β-Catenin, and β-actin. Cells were treated with compounds (0, 5, 10, and 20 μM) for 48 h, and total cell proteins were extracted using RIPA buffer containing a protease/phosphatase inhibitor cocktail. Protein expression levels were measured and analyzed by Western blotting.

For orientation: viability means a read-out of living cells in per cent, often relative to untreated cells.

Turning to `O=C1COc2ccc(NC(=O)c3cccc(-c4cn(-c5ccccc5F)nn4)c3)cc2N1` [Compound 14c], the viability at 40 µM in the data set on SKOV3 is 57.2 ± 4.16%. Besides, in the data set with Huh7, the viability at 40 µM was found to be 125 ± 1.53%. The viability at 40 µM in the data set with MCF-7 worked out at 110 ± 2.45%. The “live/dead cell numbers compared with compound 14b” value in the data set on A549 cells [1] (A549, 5, 10, 20 μM) was “The same results were also observed”. For the same molecule, in the data set with BEAS-2B cells, the “cytotoxicity in normal lung cells” value is reported as “minimal cytotoxicity”. Moreover, the viability at 48 h, 40 µM in data set [2] was 105 ± 2.38%. The ROS generation result in the data set on A549 cells [3] is recorded as “increased ROS generation”. Further, in the data set with A549 cells [4], the “cell cycle progression proteins cyclin D, cyclin E, and β-catenin” value was “not changed”; the “ratio of LC3II to LC3I / LC3 (autophagy)” value is given as “not changed”; the γ-H2AX protein expression entry was “increased expression”.

Take `O=C1COc2ccc(NC(=O)c3cccc(-c4cn(-c5cccc(Br)c5)nn4)c3)cc2N1` [Compound 14b]: the viability at 40 µM in the data set with SKOV3 was 98.02 ± 0.87%. In addition, the viability at 40 µM with Huh7 came out at 123 ± 2.08%. Moreover, the viability at 40 µM in the data set on MCF-7 amounted to 114 ± 1.68%. For the same molecule, in the data set on A549 cells [1] (A549, 5 μM), the Dead cells result is listed as “increased”. Also, in the data set with A549 cells [1] (A549, 10 μM and 20 μM), the Dead cells result is “greatly and largely increased”. In the data set with A549 cells [1] (A549, different concentrations (5, 10, 20 μM)), the Live cells result is “consistently decreased”. The “cytotoxicity in normal lung cells” value in the data set on BEAS-2B cells is “minimal cytotoxicity”. Besides, in data set [2], the viability at 48 h, 40 µM was 93.2 ± 0.61%. For the same molecule, the ROS generation entry in the data set on A549 cells [3] is on record as “increased ROS generation”. Also, in the data set with A549 cells [4], the PARP expression entry is reported as “not changed”; the “cell cycle progression proteins cyclin D, cyclin E, and β-catenin” value is “not affected”; the “ratio of LC3II to LC3I / LC3 (autophagy)” value was “increased”; the γ-H2AX protein expression entry is “induced”.
